Measurements reported in paper PMC11721293 (JCI Insight, 2025).
Where “and” joins values, the source holds several entries; their conditions need not be identical. Equal values may be shown once. Read-outs that look alike come from different tables or passages of the source.

Assays:
viral RdRp = viral RdRp (Severe acute respiratory syndrome coronavirus 2, UniProt P0DTD1); assay: In vitro RdRp activity assay (RNA extension); type: biochemical, SARS-CoV-2; details: LNF 0.1, 1 and 10 μM; TEMPOL 100 μM
[1] = Pharmacokinetics after PO administration; details: K18-hACE2(Tg) C57Bl/6J, mouse, 25 mg/kg; for Kp / half-life: in vivo, PO; for Kp: AUC ratio (Tissue/PL)
[2] = system: SARS-CoV-2 strain USA-WA1/2020; type: in vivo, mouse; details: for Viral titer Log10: individual animals, sheet S9B
[3] = system: SARS-CoV-2 spike protein–mediated cell-cell fusion (Wuhan); type: cell-based; details: 48 h
SARS-CoV-2-nLUC = type: cell-based; details: Nirmatrelvir 0 uM
SARS-CoV-2 Wuhan = type: cell-based; details: VeroE6, 10 μM LNF, 24 h, DMSO = 100%
in vitro = details: human
SARS-CoV-2 viral entry = type: cell-based; details: for viral entry signal relative to DMSO (sheet 4D): individual replicates, DMSO about 1
SARS-CoV-2 RDPs = assay: microbe, parasite or virus in culture; type: cell-based; details: for EC50: Huh7.5 ACE-TMPRSS2, Gluc RDPs, 24 h
[4] = system: SARS-CoV-2 spike protein–mediated cell-cell fusion (B.1.1.7); type: cell-based; details: 48 h
[5] = system: SARS-CoV-2 BA.1 (Omicron); type: cell-based; details: VeroE6, 10 μM LNF, 24 h, DMSO = 100%

NC(=O)N1CCC(CC(=O)N2CCC([C@H]3c4ncc(Br)cc4CCc4cc(Cl)cc(Br)c43)CC2)CC1 [LNF, lonafarnib]
polymerase activity, primer extension (viral RdRp): not affected
AUC(0-inf) ([1]; brain): 3 µM·h
Cmax ([1]; brain): 0.21 µM
Tmax ([1]; brain): 7 h
AUC(0-inf) ([1]; heart): 97 µM·h
Cmax ([1]; heart): 8.6 µM
Tmax ([1]; heart): 1 h
Kp ([1]; Brain): 0.056
Kp ([1]; Heart): 1.8
Kp ([1]; Kidney): 2.1
Kp ([1]; Liver): 5.2
Kp ([1]; Lung): 2.4
half-life ([1]; t1/2, Brain): 2.4 h
half-life ([1]; t1/2, Heart): 2.2 h
half-life ([1]; t1/2, Kidney): 2.4 h
half-life ([1]; t1/2, Liver): 1.7 h
half-life ([1]; t1/2, Lung): 2.1 h
half-life ([1]; t1/2, Plasma): 1.4 h
AUC(0-inf) ([1]; kidney): 113 µM·h
Cmax ([1]; kidney): 9.3 µM
Tmax ([1]; kidney): 1 h
AUC(0-inf) ([1]; liver): 279 µM·h
Cmax ([1]; liver): 20 µM
Tmax ([1]; liver): 7 h
AUC(0-inf) ([1]; lung): 129 µM·h
Cmax ([1]; lung): 33 µM
Tmax ([1]; lung): 0.25 h
AUC(0-inf) ([1]; plasma): 53 µM·h
Cmax ([1]; plasma): 3.8 µM
Tmax ([1]; plasma): 7 h
lung viral titer lower than vehicle-treated group ([2]; 40 MPK IP twice daily, […]): ~2 log
Viral titer Log10 ([2]; D2): 7.238 Log10 and 6.041 Log10 and 6.833 Log10 and 6.059 Log10 and 6.826 Log10 and 4.954 Log10 and 7.083 Log10 and 4.756 Log10
Viral titer Log10 ([2]; D5): 6.491 Log10 and 7.228 Log10 and 6.919 Log10 and 6.362 Log10 (2×) and 6.681 Log10 and 7.255 Log10 and 4 Log10 and 7.033 Log10
Titer Log10 ([2]; Day 2, individual animals): 1.954 (5×) and 2 and 4.538 and 2.301 and 3.13 (2×)
Titer Log10 ([2]; Day 5, individual animals): 1.954 (3×) and 2.301 and 3.23 and 3.176 and 2.699 and 2.602 and 3.398 and 2.477
lung viral titer ([2]; LNF 40 MPK IP, RDV 25 MPK SC, twice daily): significantly lowered the viral titer in the lung
relative luciferase signals ([3]; 0.3 (printed)): 83.8904 and 99.372 and 100.719 and 105.145
relative luciferase signals ([3]; 1 (printed)): 76.0312 and 74.8493 and 82.9658 and 76.539
relative luciferase signals ([3]; 3 (printed)): 82.9427 and 55.6651 and 51.5871 and 56.5775
relative luciferase signals ([3]; 10 (printed)): 30.6993 and 29.5083 and 34.9918 and 28.4711
Response (SARS-CoV-2-nLUC; Lonafarnib 2.5 uM): 71.2556 and 72.7427 and 61.8907
Response (SARS-CoV-2-nLUC; Lonafarnib 5 uM): 96.7703 and 97.5859 and 97.3674
% Genome (SARS-CoV-2 Wuhan): 8.96% and 1.08% and 1.45%
CC50 (in vitro): > 30 µM
inhibition of viral entry (SARS-CoV-2 viral entry): inhibited viral entry
viral entry signal relative to DMSO (sheet 4D) (SARS-CoV-2 viral entry; TA6 cells): 0.282 and 0.3105 and 0.4405 and 0.3405 and 0.2054 and 0.2625 and 0.3109 and 0.2607 and 0.1876
viral entry signal relative to DMSO (sheet 4D) (SARS-CoV-2 viral entry; VeroE6 cells): 0.1605 and 0.1408 and 0.1008 and 0.1281 and 0.213 and 0.1543 and 0.08537 and 0.09496 and 0.1294
EC50 (SARS-CoV-2 RDPs): 10.4 µM
Inhibition (SARS-CoV-2 RDPs; Log[LNF} mM 1): 53.2589 and 40.1773 and 43.3748 and 43.6359
EC50 (SARS-CoV-2 RDPs; Severe acute respiratory syndrome coronavirus 2, Huh7.5, 24 h): 10.5 µM
relative luciferase signals ([4]; Conc-mM 0.3 (printed)): 87.1833 and 82.9457 and 81.1177 and 86.5186
relative luciferase signals ([4]; Conc-mM 1 (printed)): 76.2725 and 76.052 and 86.6016 and 79.6419
relative luciferase signals ([4]; Conc-mM 3 (printed)): 59.768 and 61.4378 and 52.374 and 53.9099
relative luciferase signals ([4]; Conc-mM 10 (printed)): 35.1915 and 32.9108 and 27.2582 and 33.268
% Genome [5]: 3.11% and 3.81% and 4.35%
